Reference: patent publication EP4603105A1, “PHARMACEUTICAL COMPOSITION CONTAINING CYCLIC COMPOUND HAVING SELECTIVE KRAS INHIBITORY EFFECT AGAINST HRAS AND NRAS” (CHUGAI SEIYAKU KABUSHIKI KAISHA, priority 2022, dated 2024)
Where a SMILES comes first, the peptide text is derived from it. Bridges are numbered along the chain shown (N, C = ends). [ ]: non-standard residue; d: D form. The star is where a group is joined. hPhe(3-Cl-4-CF3) = N[C@@H](CCc1ccc(C(F)(F)F)c(Cl)c1)C(=O)O; NPrPhe(4-CF3) = CCCN[C@@H](Cc1ccc(C(F)(F)F)cc1)C(=O)O; NEtPhe(4-CF3) = CCN[C@@H](Cc1ccc(C(F)(F)F)cc1)C(=O)O; NMeGly(cPent) = CN[C@H](C(=O)O)C1CCCC1; NMeD = CN[C@@H](CC(=O)O)C(=O)O; NMeL = CN[C@@H](CC(C)C)C(=O)O; Morpholide = C1CN(*)CCO1; NMeA = CN[C@@H](C)C(=O)O; Ac5c = NC1(C(=O)O)CCCC1; Aze = O=C(O)[C@@H]1CCN1; Ac3c = NC1(C(=O)O)CC1; NPrGly = CCCNCC(=O)O; Sar = CNCC(=O)O

Key:
[1] = target: GDP-bound NRAS wild-type protein (Homo sapiens, UniProt P01111); test: Binding to NRAS by surface plasmon resonance (SPR), KD and KD ratio to KRAS
In short: (§1)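 Measured at 30°C: SPR with GDP-loaded, E. coli-expressed biotin-Avi RAS captured (~100–300 RU), ascending 75 s compound injections, HBS pH 7.4 with GDP, MgCl2, 4% DMSO. KD from 1:1 fit.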

[2] = target: HRAS wild-type protein (Homo sapiens, UniProt P01112); test: Binding to HRAS by surface plasmon resonance (SPR), KD and KD ratio to KRAS
In short: as §1

[3] = test system: human lung cancer strain NCI-H441; format: cell-based
In short: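 Signal came from […] measured per well once the reagent was added. Beforehand, cells were cultured at 37°C and 5% carbon dioxide on a compound series serially diluted in dimethyl sulfoxide.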

[4] = ratio of KD value for GDP-bound NRAS wild-type protein to KD value for KRAS (SPR)
[5] = ratio of KD value for HRAS wild-type protein to KD value for KRAS (SPR)
[6] = ratio of the KD value with respect to GDP-bound NRAS wild-type protein to the KD value with respect to KRAS
[7] = ratio of the KD value with respect to HRAS wild-type protein to the KD value with respect to KRAS
[8] = ratio of KD for GDP-bound NRAS wild-type protein to KD for KRAS
[9] = ratio of KD for HRAS wild-type protein to KD for KRAS

Sequence of HRAS wild-type protein (P01112 whole entry): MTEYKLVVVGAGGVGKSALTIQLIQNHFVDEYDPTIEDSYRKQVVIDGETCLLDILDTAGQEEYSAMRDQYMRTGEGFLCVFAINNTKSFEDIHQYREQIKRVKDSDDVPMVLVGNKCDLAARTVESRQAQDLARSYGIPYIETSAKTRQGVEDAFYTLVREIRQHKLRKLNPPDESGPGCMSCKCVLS
Sequence of GDP-bound NRAS wild-type protein (P01111 whole entry): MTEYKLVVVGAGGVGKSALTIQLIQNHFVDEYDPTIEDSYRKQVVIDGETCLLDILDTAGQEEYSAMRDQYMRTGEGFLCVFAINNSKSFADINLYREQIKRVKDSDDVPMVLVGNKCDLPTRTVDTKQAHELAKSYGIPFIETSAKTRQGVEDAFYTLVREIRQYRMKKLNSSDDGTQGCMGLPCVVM

Question: With `CCO[C@@H]1C[C@H]2C(=O)NC3(CCC3)C(=O)N(C)[C@@H](C3CCCC3)C(=O)N(C)[C@H](C(=O)N(C)C)CC(=O)N(C)[C@@H](CC)C(=O)N[C@@H]([C@@H](C)CC)C(=O)N(C)CC(=O)N(C)[C@H]3C/C=C\CCN(C3=O)[C@@H](Cc3ccc(C(F)(F)F)cc3)C(=O)N(C)CC(=O)N[C@@H](CCc3cc(C)c(Cl)c(C)c3)C(=O)N2C1` [PP1821] as the compound, how does the “NRAS /KRAS” value [1, 4] read?
Answer: A (a compound having 10 or more and less than 20 is denoted as A)

Question: What about the “HRAS /KRAS” value [2, 5] of the same compound?
Answer: A (a compound having 10 or more and less than 20 is denoted as A)

Question: And the IC50 [3]?
Answer: 105 nM

Question: `CCO[C@@H]1C[C@H]2C(=O)NC3(CC(C)(C)C3)C(=O)N(C)[C@@H](C3CCCC3)C(=O)N(C)[C@H](C(=O)N(C)C)CC(=O)N(CC)[C@@H](CC(C)C)C(=O)N[C@@H]([C@@H](C)CC)C(=O)NCC(=O)N(C)[C@H]3C/C=C\CCN(C3=O)[C@@H](Cc3ccc(C(F)(F)F)cc3)C(=O)N(C)CC(=O)N[C@@H](CCc3cc(F)c(C(F)(F)F)c(F)c3)C(=O)N2C1` [PP1772] was tested. Which “NRAS /KRAS” value [1, 4] did it give?
Answer: B (a compound having 3 or more and less than 10 is denoted as B)

Question: What about the “HRAS /KRAS” value [2, 5] of the same compound?
Answer: B (a compound having 3 or more and less than 10 is denoted as B)

Question: What about the IC50 [3] of the same compound?
Answer: 13.4 nM

Question: For `CCO[C@@H]1C[C@H]2C(=O)NC3(CC(C)(C)C3)C(=O)N(C)[C@@H](C3CCCC3)C(=O)N(C)[C@H](C(=O)N(C)CC)CC(=O)N(C)[C@@H](C3CCC3)C(=O)N[C@@H]([C@@H](C)CC)C(=O)N(C)CC(=O)N(C)[C@H]3C/C=C\CCN(C3=O)[C@@H](Cc3ccc(C(F)(F)F)cc3)C(=O)N(C)CC(=O)N[C@@H](CCc3cc(F)c(C(F)(F)F)c(F)c3)C(=O)N2C1` [PP2038], which “NRAS /KRAS” value [1, 6] is on record?
Answer: A (a compound having 10 or more and less than 20 is denoted as A)

Question: What about the “HRAS /KRAS” value [2, 7] of the same compound?
Answer: A (a compound having 10 or more and less than 20 is denoted as A)

Question: What about the IC50 [3] of the same compound?
Answer: 5.5 nM

Question: How did the “NRAS /KRAS” value [1, 4] turn out when `CCCC[C@H]1C(=O)N[C@@H]([C@@H](C)CC)C(=O)N(C)CC(=O)N(C)[C@H]2C/C=C\CCN(C2=O)[C@@H](Cc2ccc(C(F)(F)F)cc2)C(=O)N(C)CC(=O)N[C@@H](CCc2cc(F)c(C(F)(F)F)c(F)c2)C(=O)N2C[C@H](OCC)C[C@H]2C(=O)NC2(CC(C)(C)C2)C(=O)N(C)[C@@H](C2CCCC2)C(=O)N(C)[C@H](C(=O)N(C)C)CC(=O)N1C` [PP1649] was run?
Answer: A (a compound having 10 or more and less than 20 is denoted as A)

Question: What about the “HRAS /KRAS” value [2, 5] of the same compound?
Answer: B (a compound having 3 or more and less than 10 is denoted as B)

Question: And the IC50 [3]?
Answer: 2.2 nM

Question: `CC[C@H](C)[C@@H]1NC(=O)[C@H](CC(C)C)N(C)C(=O)C[C@@H](C(=O)N2CCOCC2)N(C)C(=O)[C@H](C2CCCC2)N(C)C(=O)C2(CC2)NC(=O)[C@@H]2CCCN2C(=O)[C@H](CCc2ccc(C(F)(F)F)c(Cl)c2)NC(=O)CN(C)C(=O)[C@H](Cc2ccc(C(F)(F)F)cc2)N(CC)C(=O)[C@@H]2CCN2C(=O)[C@H](C)N(C)C1=O` [PP0220] ([NMeL]I[NMeA][Aze][NEtPhe(4-CF3)][Sar][hPhe(3-Cl-4-CF3)]P[Ac3c][NMeGly(cPent)][NMeD]-Morpholide; lactam N-11) was tested. Which “NRAS /KRAS” value [1, 8] did it give?
Answer: C (A compound having a KD ratio of 0.1 or more and less than 3 is denoted as C)

Question: And the “HRAS /KRAS” value [2, 9]?
Answer: C (A compound having a KD ratio of 0.1 or more and less than 3 is denoted as C)

Question: What about the IC50 [3] of the same compound?
Answer: 7.7 nM

Question: For `CCO[C@@H]1C[C@H]2C(=O)NC3(CCC3)C(=O)N(C)[C@@H](C3CCCC3)C(=O)N(C)[C@H](C(=O)N3CCOCC3)CC(=O)N(C)[C@@H](C)C(=O)N[C@@H]([C@@H](C)CC)C(=O)N(C)CC(=O)N(C)[C@H]3CCCCCN(C3=O)[C@@H](Cc3ccc(C(F)(F)F)cc3)C(=O)N(C)CC(=O)N[C@@H](CCc3cc(F)c(C(F)(F)F)c(F)c3)C(=O)N2C1` [PP0474], which “NRAS /KRAS” value [1, 6] is on record?
Answer: B (a compound having 3 or more and less than 10 is denoted as B)

Question: What about the “HRAS /KRAS” value [2, 7] of the same compound?
Answer: B (a compound having 3 or more and less than 10 is denoted as B)

Question: What about the IC50 [3] of the same compound?
Answer: 19.9 nM

Question: What does the source list for `CC[C@H](C)[C@@H]1NC(=O)[C@H](CC(C)C)N(C)C(=O)C[C@@H](C(=O)N(C)C)N(C)C(=O)[C@H](C2CCCC2)N(C)C(=O)C2(CCCC2)NC(=O)[C@@H]2CC(F)(F)CN2C(=O)[C@H](CCc2cc(F)c(C(F)(F)F)c(F)c2)NC(=O)CN(C)C(=O)[C@H](Cc2ccc(C(F)(F)F)cc2)N2CCCCC[C@@H](C2=O)N(C)C(=O)CN(C)C1=O` [PP0465]?
Answer: NRAS /KRAS [1, 6]: B (a compound having 3 or more and less than 10 is denoted as B); HRAS /KRAS [2, 7]: B (a compound having 3 or more and less than 10 is denoted as B); IC50 [3]: 18 nM

Question: What does the source list for `CC[C@H](C)[C@@H]1NC(=O)[C@H](CC(C)C)N(C)C(=O)C[C@@H](C(=O)N2CCOCC2)N(C)C(=O)[C@H](C2CCCC2)N(C)C(=O)C2(CCCC2)NC(=O)[C@@H]2CCCN2C(=O)[C@H](CCc2ccc(C(F)(F)F)c(Cl)c2)NC(=O)CN(C)C(=O)[C@H](Cc2ccc(Cl)cc2)N2CCCCC[C@@H](C2=O)N(C)C(=O)CN(C)C1=O` [PP0613]?
Answer: NRAS /KRAS [1, 6]: B (a compound having 3 or more and less than 10 is denoted as B); HRAS /KRAS [2, 7]: B (a compound having 3 or more and less than 10 is denoted as B); IC50 [3]: 42.4 nM

Question: What does the source list for `CCCN1CC(=O)N2CC[C@H]2C(=O)N(CCC)[C@@H](Cc2ccc(C(F)(F)F)cc2)C(=O)N(C)CC(=O)N[C@@H](CCc2ccc(C(F)(F)F)c(Cl)c2)C(=O)N2CCC[C@H]2C(=O)NC2(CCCC2)C(=O)N(C)[C@@H](C2CCCC2)C(=O)N(C)[C@H](C(=O)N2CCOCC2)CC(=O)N(C)[C@@H](CC(C)C)C(=O)N[C@@H]([C@@H](C)CC)C1=O` [PP0274] ([NMeL]I[NPrGly][Aze][NPrPhe(4-CF3)][Sar][hPhe(3-Cl-4-CF3)]P[Ac5c][NMeGly(cPent)][NMeD]-Morpholide; lactam N-11)?
Answer: NRAS /KRAS [1, 8]: C (A compound having a KD ratio of 0.1 or more and less than 3 is denoted as C); HRAS /KRAS [2, 9]: B (a compound having 3 or more and less than 10 is denoted as B); IC50 [3]: 9.1 nM

Question: How did the “NRAS /KRAS” value [1, 8] turn out when `CCC[C@H]1C(=O)N[C@@H]([C@@H](C)CC)C(=O)N(C)CC(=O)N(C)[C@H]2C/C=C\CCN(C2=O)[C@@H](Cc2ccc(C(F)(F)F)cc2)C(=O)N(C)CC(=O)N[C@@H](CCc2ccc(Cl)c(Cl)c2)C(=O)N2CCCCC[C@H]2C(=O)NC2(CC(C)(C)C2)C(=O)N(C)[C@@H](C(CC)CC)C(=O)N(C)[C@H](C(=O)N(C)C)CC(=O)N1C` [PP3031] was run?
Answer: AA (a compound having 20 or more is denoted as AA)

Question: What about the “HRAS /KRAS” value [2, 9] of the same compound?
Answer: A (a compound having 10 or more and less than 20 is denoted as A)

Question: And the IC50 [3]?
Answer: 94.2 nM

Question: With `CC[C@H](C)[C@@H]1NC(=O)[C@H](CC2CC2)N(C)C(=O)C[C@@H](C(=O)N(C)C)N(C)C(=O)[C@H](C2CCCC2)N(C)C(=O)C2(CC(C)(C)C2)NC(=O)[C@@H]2C[C@H](C)CN2C(=O)[C@H](CCc2ccc(C(F)(F)F)c(OC)c2)NC(=O)CN(C)C(=O)[C@H](Cc2ccc(C)cc2)N2CC/C=C\C[C@@H](C2=O)N(C)C(=O)CN(C)C1=O` [PP1898] as the compound, how does the “NRAS /KRAS” value [1, 6] read?
Answer: B (a compound having 3 or more and less than 10 is denoted as B)

Question: And the “HRAS /KRAS” value [2, 7]?
Answer: B (a compound having 3 or more and less than 10 is denoted as B)

Question: And the IC50 [3]?
Answer: 6.3 nM

Question: `CCC[C@H]1C(=O)N[C@@H](C2CCCC2)C(=O)N(C)CC(=O)N(C)[C@H]2C/C=C\CCN(C2=O)[C@@H](Cc2ccc(C)cc2)C(=O)N(C)CC(=O)N[C@@H](CCc2cc(F)c(C(F)(F)F)c(F)c2)C(=O)N2CC3(CC3)C[C@H]2C(=O)NC2(CC(C)(C)C2)C(=O)N(C)[C@@H](C2CCCC2)C(=O)N(C)[C@H](C(=O)N(C)C)CC(=O)N1C` [PP2990] was tested. Which “NRAS /KRAS” value [1, 8] did it give?
Answer: A (a compound having 10 or more and less than 20 is denoted as A)

Question: And the “HRAS /KRAS” value [2, 9]?
Answer: A (a compound having 10 or more and less than 20 is denoted as A)

Question: What about the IC50 [3] of the same compound?
Answer: 8.9 nM
